{"source": "patent US20260248812A1", "about": "“METHODS OF TREATING CONGENITAL ADRENAL HYPERPLASIA” (Spruce Biosciences, Inc., priority 2019, published 2026)", "key": {"adults with classic CAH": {"test_system": "adults with classic CAH", "test": "Phase 2 clinical study of Compound 3 with glucocorticoid: time matched change of serial hormone profiles (ACTH, 17-OHP, A4)", "format": "in vivo, human", "settings": "non-dexamethasone subjects; for A4 level profile, time matched change from baseline: 6 am to 8 am", "protocol": "Study Compound 3, a Phase 2, open-label, first-in-CAH-patients, proof-of-concept, dose ranging study, evaluated the safety and efficacy of repeated doses of SPR001 in adults with classic CAH. The population (n=24; with 2 subjects completing 2 cohorts) consisted of subjects with classic CAH that is not adequately controlled despite a stable glucocorticoid regimen based on the assessment of a single hormone at study screening, 17-OHP>800 ng/dl, which is 4 times the upper limit of a normal reference range of 17-OHP level. 17-OHP was chosen as the hormone as an inclusion criterion, as at the time, it represented the state-of-art in CAH for assessment of disease severity and adequacy of glucocorticoid therapy. The study comprised 3 cohorts, Cohort A was a 6-week intra-subject dose escalation treatment period with three 2-week treatment periods of 200 mg […] (QD) (only daily), 600 mg QD and 1000 mg QD without washout between treatment periods. Cohorts B and C consisted of 2-week treatment periods of either 100 bis in die (BID) (twice daily) (Cohort C) or 200 mg BID (Cohort B). At baseline, the following hormones were assessed, 17-OHP, ACTH and A4. The same hormones were assessed at the end of each 2-week treatment period.\nA clinical study is conducted involving up to 52 weeks treatment of Compound 3 with concurrent daily glucocorticoid therapy for the treatment of adults with classic CAH. After screening using A4 and ACTH level criteria, eligible patients are enrolled into up to 12 weeks of placebo-controlled treatment followed by 40 weeks of open label treatment and a 4-week washout/safety follow-up period.\n(§1) As part of the study, pre and pose concentrations of DEX and cortisol were measured. In some embodiments, the biomarker reduction analysis comprises all subjects.\n(§2) A pooled baseline (dotted) and 2 lines (solid) representing two dose groups (doses=200 mg and doses >200 mg) using the percentage change from dose group baseline presented as percentage change from the pooled baseline. The figures are divided by disease control group, poor disease control with highly elevated ACTH and A4 and the good disease control group with ACTH and A4 that is near normal or below normal ranges. Each group has elevated 17-OHP.\nas §2, with “In both groups, 17-OHP is elevated above its target (1200 ng/dL). The Y-axis is different with the poor disease control” for “Each”, “exceeding 8000 ng/dL in FIG. 3A and the good disease group was near an upper bound of approximately 3000 ng/dL in FIG. 3B.” for “has elevated 17-OHP.”"}, "CYP3A4 pathway": {"target": "CYP3A4 pathway (Homo sapiens, UniProt P08684)", "sequence (P08684 whole entry)": "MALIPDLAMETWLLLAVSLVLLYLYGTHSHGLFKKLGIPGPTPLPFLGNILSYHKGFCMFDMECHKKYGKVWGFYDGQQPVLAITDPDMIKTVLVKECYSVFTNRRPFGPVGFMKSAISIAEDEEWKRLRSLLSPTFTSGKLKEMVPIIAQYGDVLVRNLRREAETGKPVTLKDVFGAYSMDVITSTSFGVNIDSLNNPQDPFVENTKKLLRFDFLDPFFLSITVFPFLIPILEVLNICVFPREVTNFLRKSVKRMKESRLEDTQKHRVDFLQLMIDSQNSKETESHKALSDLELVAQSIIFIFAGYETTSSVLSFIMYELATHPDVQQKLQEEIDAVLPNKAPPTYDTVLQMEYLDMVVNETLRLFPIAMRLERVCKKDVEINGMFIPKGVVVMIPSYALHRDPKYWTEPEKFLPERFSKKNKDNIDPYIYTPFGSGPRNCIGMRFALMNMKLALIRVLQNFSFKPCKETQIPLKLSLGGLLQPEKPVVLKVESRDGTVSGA", "test": "CYP3A4 pathway inhibition (statement)", "format": "in vitro ADME", "settings": "dexamethasone is primarily metabolized through the CYP3A4 pathway", "protocol": "as §1"}}, "data": [{"compound": "CCC(CC)c1cc(C)nc2c(-c3sc(N4CCOCC4)nc3Cl)c(C)nn12", "note": "[Compound 3, 4-(4-chloro-5-(2,5-dimethyl-7-(pentan-3-yl)pyrazolo[1,5-a]pyrimidin-3-yl)thiazol-2-yl)morpholine]", "values": [{"measurement": "17-OHP level, serial hormone profile, time matched change from baseline", "setting": "adults with classic CAH; both poor and good disease control groups, 10 pm to 8 am, FIGS. 3A and 3B", "value": "reduced the magnitude of the increase in 17-OHP post 3 am"}, {"measurement": "ACTH level, serial hormone profile, time matched change from baseline", "setting": "adults with classic CAH; good disease control group (ACTH and A4 near or below normal), 10 pm to 8 am, FIG. 2B", "value": "generally maintained the serial profile below the ULN"}, {"measurement": "A4 level profile, time matched change from baseline", "setting": "adults with classic CAH; good disease control group, FIG. 4B", "value": "further reduce A4 level compared to the baseline level"}, {"measurement": "ACTH level, serial hormone profile, time matched change from baseline", "setting": "adults with classic CAH; poor disease control group (highly elevated ACTH and A4), 10 pm to 8 am, doses =200 mg and >200 mg, FIG. 2A", "value": "reduced the magnitude of the increase in ACTH post 3 am"}, {"measurement": "A4 level profile, time matched change from baseline", "setting": "adults with classic CAH; poor disease control group, blended gender based ULN approximately 212 ng/dL, FIG. 4A", "value": "improves the A4 profile in subjects toward the blended gender based ULN"}, {"measurement": "inhibition of the CYP3A4 pathway", "setting": "CYP3A4 pathway", "value": "inhibitor of the CYP3A4 pathway"}]}]}
